Experimental data reported in US5028411A, “Pharmaceutical compositions” (priority 1984, dated 1991).
Where two headings read alike, the source gives them in different places. Each block holds one compound with its values, some of them ahead of it.

Experiments:
[1] = Text: (§1) In order to solubilise iron(III) hydroxide, log Ksol must be greater than 0.
[2] = remark: listed apart in the source
Method: An indication of the properties of a compound in this respect is provided by the value of the partition coefficient (Kpart) obtained on partition between n-octanol and Tris hydrochloride (20 mM, pH 7.4; Tris representing 2-amino-2-hydroxymethylpropane 1,3-diol) at 20° C. and expressed as the ratio (concentration of compound in organic phase)/(concentration of compound in aqueous phase).
Acid washed glassware is used throughout and, following mixing for 1 minute, the aqueous/n-octanol mixture is centrifuged at 1000 g for 30 seconds. The two resulting phases are separated for a concentration determination by spectrophotometry on each.

rat jejunal sac [3] = experiment: In vitro permeation of rat jejunal sac by iron complexes
Method: Rats (male Sprague Dawley, 60 g) were killed and the jejunum removed, everted and cut into three segments (4 cm length). The segments were tied at both ends, filled with Krebs Ringer buffer (0.2 ml) and incubated in Krebs Ringer buffer containing the appropriate ^59 Fe compound at 37° C. for periods up to 90 minutes. The contents of the sac were counted for ^59 Fe and measured spectrophotometrically.

rat jejunal sac [4] = assay type: in vitro ADME, rat (male Sprague Dawley)
Text: The procedure described above was used to compare the uptake of iron from buffer containing differing molar proportions of maltol:iron.

haemoglobin = experiment: Binding to haemoglobin by gel permeation elution profile of 59Fe; conditions: 1 mM complex, NaCl 130 mM, pH 7.4, PD-10 column
apotransferrin = experiment: Exchange of iron(III) between complex and apotransferrin
Text: as §1

human erythrocytes = assay type: in vitro ADME; conditions: not told
Method: Following this period of incubation an aliquot of the erythrocyte/medium mixture was placed above a layer of silicone oil (.rho.=1.06) and the erythrocytes separated by centrifugation through the oil. The ^59 Fe levels associated with the erythrocytes and the incubation medium were then counted and presented as a distribution ratio (concentration in erythrocytes/concentration in medium).

[5] = assay type: in vivo, cat
Method: (§2) Cats were anaesthetised with chloralase (60 mg/kg) and pentobarbitone sodium (60 mg/kg) (i.p.), having been kept free of food for 18 hours. In each animal the trachea was cannulated to maintain a clear airway and to allow positive pressure artificial respiration if necessary. The left femoral vien was cannulated for the intravenous administration of drugs and physiological saline solution. Arterial blood pressure was monitored by a Washington pressure transducer through a cannula inserted into the femoral artery of the right hind leg. Arterial blood samples were taken at appropriate intervals from a short cannula inserted into an external carotid artery. Body temperature was monitored with a rectal thermometer. Each animal was given heparin (1000 iu/kg) as anticoagulant and additional small amounts of pentabarbitone sodium if needed to maintain a satisfactory level of anaesthesia.
The apparent volume of distribution of the compound was calculated by extrapolation of the log-linear blood concentration curve to zero.
The amount of ^59 Fe administered in this experiment was 4 μCi of 2.2×10^6 cpm.

[6] = system: bovine serum albumen (BSA); experiment: Binding to bovine serum albumen (BSA); conditions: column procedure as for haemoglobin
erythrocyte ghosts = assay type: binding, human
Text: Experiments to determine the percentage of ^59 Fe associated with erthrocyte ghosts after lysis confirm this hypothesis. In one experiment, lysis was initiated by a small volume of 10% v/v Triton X100 and in a second experiment by a 10 fold excess of water. […] Such binding is of course undesirable as the complex is likely to remain tightly bound to the membrane by electrostatic interactions and not be transmitted across it.

[7] = In vivo cat, duodenal: 59Fe blood level and tissue distribution
Method: as §2
In those animals where the iron compounds were to be administered into the duodenum, a mid-line incision was made in the abdomen to reveal the intestines. A cannula was then inserted through a small cut such that its tip rested approximately 5 cm below the opening of the bile duct. The cannula was then sutured in place and the abdominal wall closed with stitches.
The distribution of ^59 Fe in the tissues of the animal after the same duodenal experiment to which FIG. 7 relates were investigated and the typical results are shown in Table 7. The amount of ^59 Fe administered in this experiment was 10 μCi or 5.327×10^6 cpm into a 2.9 kg cat. It will be seen that the distribution of the ^59 Fe after 4 hours was similar to that after intravenous infusion, with low levels in the kidney and urine and high levels in both the spleen and bone marrow.
The distribution of ^59 Fe in the tissues of the animal after the same duodenal experiment were investigated and the typical results are shown in Table 8. The amount of ^59 Fe administered in this experiment was 10 μCi or 2.65×10^6 cpm into a 2.9 kg cat. It will be seen that, although some ^59 Fe entered the tissues, rather low levels were detected in the spleen and bone marrow (sternum) whereas a large proportion of the dose was located in the urine.

[8] = In vivo test of action of iron compounds in the rat (59Fe into duodenum)
Method: Groups of rats (300-350 g) were anaesthetised with nembutal (0.25 ml) and then with ether. A mid-line incision was made and the ^59 Fe labelled sample (100 μg Fe, 10 μCi) was passed into the lumen of the duodenum via a small incision. The abdominal well was then closed with a suture. The animals were sacrificed 1, 2, 4 and 6 hours after the administration of the compound and the various organs were monitored for their ^59 Fe content. […] In the case of the data for blood and sternum (bone marrow) the counts given are cpm/ml and cpm/g respectively, whilst in all other cases they are the total cpm counts.

[9] = Affinity of maltol for copper (II), zinc (II), calcium and magnesium; assay type: physicochemical; conditions: compared with iron
Text: as §1

[10] = Metabolism of free hydroxypyrone
[11] = n-octanol/tris hcl, 100 µM, pH 7.4
[12] = iron EDTA duodenal, 2.65×10^6 cpm
[13] = relative to ferric chloride as 1, 37° C.

Compound: Cc1occc(=O)c1[O-].Cc1occc(=O)c1[O-].Cc1occc(=O)c1[O-].[Fe+3] [Iron maltol]
thermodynamic stability constant [1]: 30
partition coefficient Kpart (concentration in n-octanol/concentration in aqueous phase) [2, 11]: 0.50
Relative iron uptake, 15 minutes (rat jejunal sac [3]): 40
Relative iron uptake, 60 minutes (rat jejunal sac [3]): 5.8
concentration range over which uptake increased linearly (rat jejunal sac [3]): 500 to 10000 µM
period over which uptake was linear (rat jejunal sac [3]): 90 min
Iron uptake into serosal contents of the sac (rat jejunal sac [4]): 30.0 n mole
proportion of total iron present as 3:1 complex (rat jejunal sac [4]; at 2:1 ratio of maltol:iron): 13%
binding to haemoglobin (haemoglobin): no evidence is found for binding
lability of the complex (apotransferrin): extremely labile
time for erythrocyte uptake to reach equilibrium (human erythrocytes): about 15 minutes
59Fe directed to the bone marrow ([5]; cat, in vivo, iv): approximately 90%
dose located in combined tissue of heart, liver and spleen ([5]; cat, in vivo, iv): approximately 10%
dose located in the urine ([5]; cat, in vivo, iv): less than 0.2%
Net 59Fe content, Heart ([5]; in vivo, iv): 490 cpm/g
Net 59Fe content, Kidney ([5]; in vivo, iv): 546 cpm/g
Net 59Fe content, Liver ([5]; in vivo, iv): 510 cpm/g
Net 59Fe content, Skeletal muscle ([5]; in vivo, iv): 0 cpm/g
Net 59Fe content, Spleen ([5]; in vivo, iv): 14,890 cpm/g
Net 59Fe content, Sternum (bone marrow) ([5]; in vivo, iv): 3,200 cpm/g
Net 59Fe content, Urine ([5]; in vivo, iv): 152 cpm/g
Net total 59Fe content, Heart ([5]; in vivo, iv): 7,056 cpm
Net total 59Fe content, Kidney ([5]; in vivo, iv): 6,661 cpm
Net total 59Fe content, Liver ([5]; in vivo, iv): 53,550 cpm
Net total 59Fe content, Skeletal muscle ([5]; in vivo, iv): 0 cpm
Net total 59Fe content, Spleen ([5]; in vivo, iv): 125,076 cpm
Net total 59Fe content, Urine ([5]; in vivo, iv): < 3,000 cpm
apparent volume of distribution ([5]; in vivo, iv): a value between that of the total extracellular space of the animal and the blood volume
binding to bovine serum albumen [6]: little ability to bind to BSA
Iron associated with ghosts, Hypotonic lysis (erythrocyte ghosts): < 5%
Iron associated with ghosts, Triton lysis (erythrocyte ghosts): < 1%

Compound: iron(III) ascorbate [Fe^III ascorbate]
partition coefficient Kpart (concentration in n-octanol/concentration in aqueous phase) [2, 11]: 0.0015
Relative iron uptake, 15 minutes (rat jejunal sac [3]): 0.4
Relative iron uptake, 60 minutes (rat jejunal sac [3]): 0.8

Compound: O=C([O-])CN(CCN(CC(=O)[O-])CC(=O)[O-])CC(=O)[O-].[Fe+3] [Iron EDTA]
plasma levels of radioactivity ([7]; duodenal): hardly exceeded the background level
Net 59Fe content, Heart [7, 12]: 188 cpm/g
Net 59Fe content, Kidney [7, 12]: 1,762 cpm/g
Net 59Fe content, Liver [7, 12]: 499 cpm/g
Net 59Fe content, Skeletal muscle [7, 12]: 117 cpm/g
Net 59Fe content, Spleen [7, 12]: 200 cpm/g
Net 59Fe content, Sternum (bone marrow) [7, 12]: 917 cpm/g
Net 59Fe content, Urine [7, 12]: 36,306 cpm/g
Net total 59Fe content, Heart [7, 12]: 2,878 cpm
Net total 59Fe content, Kidney [7, 12]: 19,913 cpm
Net total 59Fe content, Liver [7, 12]: 29,574 cpm
Net total 59Fe content, Spleen [7, 12]: 880 cpm
Net total 59Fe content, Urine [7, 12]: 544,596 cpm
59Fe levels in the intestine wall and blood ([8]; 100 μg Fe): extremely low
iron transfer to / 59Fe levels in bone marrow and spleen ([8]; 100 μg Fe, compared with maltol complex): reduced rates
59Fe in gut washings ([8]; 100 μg Fe, non-absorbed iron): remain high for 4 hours
dose located in the urine ([5]; cat, in vivo, iv): over 50%
rate constant of the elimination from the blood of the linear phase ([5]; cat, in vivo, iv): 0.023 min⁻¹
Net 59Fe content, Heart ([5]; in vivo, iv): 209 cpm/g
Net 59Fe content, Kidney ([5]; in vivo, iv): 1,134 cpm/g
Net 59Fe content, Liver ([5]; in vivo, iv): 261 cpm/g
Net 59Fe content, Spleen ([5]; in vivo, iv): 162 cpm/g
Net 59Fe content, Sternum (bone marrow) ([5]; in vivo, iv): 1,164 cpm/g
Net 59Fe content, Urine ([5]; in vivo, iv): 62,156 cpm/g
Net total 59Fe content, Heart ([5]; in vivo, iv): 3,248 cpm
Net total 59Fe content, Kidney ([5]; in vivo, iv): 21,770 cpm
Net total 59Fe content, Liver ([5]; in vivo, iv): 19,600 cpm
Net total 59Fe content, Spleen ([5]; in vivo, iv): 1,814 cpm
Net total 59Fe content, Urine ([5]; in vivo, iv): 1,180,900 cpm
kinetics of loss of radioactivity from blood ([5]; in vivo, iv): at least a two-component process
Net 59Fe content, Skeletal muscle ([5]; iron EDTA i.v., adjusted to 2.2×10^6 cpm): 95 cpm/g

Compound: Cc1occc(=O)c1O [maltol, 3-hydroxy-2-methyl-4-pyrone]
affinity for iron (log β3) [1]: 30
affinity for copper (II), zinc (II), calcium and magnesium [9]: lower affinity
partition coefficient Kpart (concentration in n-octanol/concentration in aqueous phase) ([2]; n-octanol/Tris hydrochloride 20 mM, pH 7.4, 10^-4 M, spectrophotometry): 0.66
metabolism [10]: rapidly metabolized
deposition of iron in the bone marrow over time ([8]; 6 hour period): continuously throughout the 6 hour period at an apparently constant rate

Compound: [Cl][Fe]([Cl])[Cl] [FeCl3, ferric chloride]
Relative iron uptake, 15 minutes (rat jejunal sac [3]; [13]): 1
Relative iron uptake, 60 minutes (rat jejunal sac [3]; [13]): 1

Second part, the compound after the results:

Relative iron uptake, 15 minutes (rat jejunal sac [3]): 1.6
Relative iron uptake, 60 minutes (rat jejunal sac [3]): 0.8
Compound: iron(II) gluconate [Fe^II gluconate]

Relative iron uptake, 15 minutes (rat jejunal sac [3]): 2.0
Relative iron uptake, 60 minutes (rat jejunal sac [3]): 1.8
Compound: O=C([O-])CC(O)(CC(=O)[O-])C(=O)[O-].[Fe+3] [Fe^III citrate]

Relative iron uptake, 15 minutes (rat jejunal sac [3]): 2.4
Relative iron uptake, 60 minutes (rat jejunal sac [3]): 1.4
Compound: O=S(=O)([O-])[O-].[Fe+2] [Fe^II sulphate, iron(II) sulphate]

Relative iron uptake, 15 minutes (rat jejunal sac [3]): 2.0
Relative iron uptake, 60 minutes (rat jejunal sac [3]): 1.0
Compound: O=C([O-])CCC(=O)[O-].[Fe+2] [Fe^II succinate]

Relative iron uptake, 15 minutes (rat jejunal sac [3]): 4.0
Relative iron uptake, 60 minutes (rat jejunal sac [3]): 1.8
Compound: O=C([O-])/C=C/C(=O)[O-].[Fe+2] [Fe^II fumarate]
